Source: paper PMC9339481 (Nature chemical biology, 2022)
Where two headings read alike, the source gives them in different places. Blank lines part the entries; values can stand above or below the molecule they belong to.

Key:
[1] = system: HDAC1 and HDAC2; assay: binding kinetics pulldown experiment; design: species or system human; conditions: 4 °C, 30 μM
[2] = molecular target: T1, recombinant MBLAC2 (Homo sapiens, UniProt Q68D91); assay: Palmitoyl-CoA hydrolysis assay; format: biochemical; conditions: for EC50: assay threshold 10 nM
T1 sequence (Q68D91 1-279): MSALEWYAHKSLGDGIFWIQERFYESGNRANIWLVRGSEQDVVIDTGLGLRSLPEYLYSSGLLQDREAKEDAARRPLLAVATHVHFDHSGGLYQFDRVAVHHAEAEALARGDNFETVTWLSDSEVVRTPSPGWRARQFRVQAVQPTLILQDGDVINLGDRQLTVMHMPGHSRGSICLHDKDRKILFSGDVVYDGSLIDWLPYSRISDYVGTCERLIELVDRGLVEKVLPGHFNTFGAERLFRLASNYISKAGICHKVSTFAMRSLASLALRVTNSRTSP

[3] = system: CoREST complex subunits RCOR3 and RCOR1; assay: HDAC complex selectivity from competition pulldown; format: binding, human
[4] = system: HDAC6; conditions: reported values; cited from earlier work
[5] = molecular target: HDACs 1–3; assay: chemoproteomic competition pulldown assay, HDACs 1–3; format: binding, human
[6] = molecular target: HDACs or other metalloproteins; assay: chemoproteomic competition pulldown assay, whole target panel; conditions: for affinities (Kd^app) in chemoproteomic assay: doses up to 3000 μM
[7] = system: class IIa HDACs; assay: chemoproteomic competition pulldown assay, class IIa HDACs; format: binding, human
[8] = system: SW620 cells, HDAC6 substrate alpha-tubulin; assay: Western blot against acetylated alpha-Tubulin; format: cell-based, human; conditions: 6 h, vs DMSO control
[9] = molecular target: T2, HDAC8 (Homo sapiens, UniProt Q9BY41); assay: HDAC-Glo enzyme activity assay; format: biochemical
T2 sequence (Q9BY41 1-377): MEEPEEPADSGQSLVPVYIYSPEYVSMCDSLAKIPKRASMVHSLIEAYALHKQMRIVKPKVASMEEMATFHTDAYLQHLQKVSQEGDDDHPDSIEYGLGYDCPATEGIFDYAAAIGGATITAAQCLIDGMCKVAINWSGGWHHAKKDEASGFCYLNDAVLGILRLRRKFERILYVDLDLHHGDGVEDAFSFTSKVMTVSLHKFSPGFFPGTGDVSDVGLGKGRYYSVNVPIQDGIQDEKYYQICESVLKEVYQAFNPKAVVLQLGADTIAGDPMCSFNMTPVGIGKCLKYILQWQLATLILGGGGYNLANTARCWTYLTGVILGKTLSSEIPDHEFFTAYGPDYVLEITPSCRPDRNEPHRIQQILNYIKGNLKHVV

[10] = EC50 of MBLAC2 hydrolase activity inhibition

SMILES: Nc1ccccc1NC(=O)c1ccc(CNC(=O)OCc2cccnc2)cc1 [Entinostat]
time until target HDACs maximally competed [1]: more than 2 h

SMILES: Nc1cc(F)ccc1NC(=O)c1ccc(CNC(=O)/C=C/c2cccnc2)cc1 [Tucidinostat]
MBLAC2 enzyme activity, single dose screen ([2]; 300 nM drug, 30 nM MBLAC2): little if any effect on enzyme activity
effect on MBLAC2 activity ([2]; at a 1,000-fold higher concentration): did not affect MBLAC2 activity

SMILES: O=C(/C=C/c1ccc(CN(CCO)CCc2c[nH]c3ccccc23)cc1)NO [Dacinostat]
lower EC50 value of RCOR3 compared to RCOR1 and other CoREST members [3]: > 10 fold

SMILES: CCCCN(Cc1ccc(C(=O)NO)cc1)C(=O)Nc1ccccc1 [Nexturastat A]
pEC50 HDAC6 [4]: 8.3

SMILES: O=C(CCCCCCNC(=O)c1cnc(N(c2ccccc2)c2ccccc2)nc1)NO [Ricolinostat]
pKd^app range for HDACs 1–3 [5]: 4.9–6.0

SMILES: Cn1c(/C=C/C(=O)NO)ccc1/C=C/C(=O)c1cccc(F)c1 [MC1568]
class IIa target engagement [7]: no class IIa target engagement at all

SMILES: CC(C)[C@H](C(=O)Nc1ccc(C(=O)NO)cc1)c1ccccc1 [AR-42]
EC50 ([2]; read-out: EC50 of MBLAC2 hydrolase activity inhibition): < 10 nM

SMILES: CN(C)Cc1c(C(=O)NCCOc2ccc(C(=O)NO)cc2)oc2ccccc12 [Abexinostat]
EC50 [2, 10]: < 10 nM

SMILES: C/C=C1\NC(=O)[C@H]2CSSCC/C=C/[C@H](CC(=O)N[C@H](C(C)C)C(=O)N2)OC(=O)[C@H](C(C)C)NC1=O [Romidepsin]
lower EC50 value of RCOR3 compared to RCOR1 and other CoREST members [3]: > 10 fold

SMILES: Cc1cc(C)cc(C(=O)NOCCCCCC(=O)NO)c1 [LMK235]
class IIa target engagement [7]: no class IIa target engagement at all

SMILES: O=C(NO)c1cnc(NC2(c3ccccc3)CC2)nc1 [ACY-738]
acetylation of alpha-Tubulin Lys40 [8]: significant overacetylation

SMILES: O=C(CCCCCCC(=O)Nc1ccccc1)NO [Vorinostat]
activity against HDAC8 [9]: very low activity

Second part, the molecule after the results:

affinities (Kd^app) in chemoproteomic assay [6]: three-digit micromolar
SMILES: O=C(O)CCCc1ccccc1 [Phenylbutanoic Acid]

affinities (Kd^app) in chemoproteomic assay [6]: three-digit micromolar
SMILES: CCCC(CCC)C(=O)O [Valproic Acid]

lower EC50 value of RCOR3 compared to RCOR1 and other CoREST members [3]: > 10 fold
SMILES: CN(C)c1ccc(C(=O)NCCCCCCC(=O)NO)cc1 [M344]

EC50 [2, 10]: < 10 nM
SMILES: CCCCc1nc2cc(/C=C/C(=O)NO)ccc2n1CCN(CC)CC [Pracinostat]

HDAC binding in chemoproteomic assay [6]: did not bind HDACs
SMILES: CCCCOc1ccc(CC(=O)NO)cc1 [Bufexamac]

HDAC binding in chemoproteomic assay [6]: did not bind HDACs
SMILES: Cc1cc(Cl)ccc1OCCCC(=O)NO [Droxinostat]
